The structures appear in SMILES notation.

For orientation: melting point means the temperature of the solid-liquid transition. Consider `O=c1[nH]c2cc(Cl)cc(Cl)c2c(=O)n1Cc1cccc(Cl)c1`, for which the melting point lay within 276 to 279 °C.
The result for `COCCOc1ccc(C=NOC)cc1O` reads 63 to 64 °C.
With `COc1ccc(NCC(=O)N2CCC(Oc3ccc(Cl)cc3)CC2)cc1` the figure was 127 to 130 °C; with `CCCCCCCNC(=O)Nc1ccc([N+](=O)[O-])cc1C(=O)NC1CCN(C(c2ccccc2)c2ccccc2)CC1`, 165 to 166 °C; with `CC(SC(=O)c1ccccc1)C(=O)NC(Cc1ccccc1)C(=O)O` (centres undefined), 173 to 175 °C.
The result for `Cc1cc(C)c([N+](=O)[O-])c(C)c1-c1n[nH]c2c(C#N)c(C(C)(C)C)nn12` reads 265 to 266 °C.
In turn, `COc1cc(N)c(Cl)cc1C(=O)NCC1CCN(CCC(=O)c2ccc(O)cc2)CC1` gave a melting point of 191 to 193 °C.
With `CC(C)(C)OC(=O)N=C(NCCCCNC(=O)[C@H](Cc1ccccc1)NC(=O)CCCC(=O)O)NC(=O)OC(C)(C)C` the figure was 86 °C; with `CCCN(CCC)[C@H]1COc2c(F)ccc(C(=O)NC)c2C1`, 72 to 73 °C.
As for `Cc1ccc(-c2ccc(C(=O)Nc3ccc4cc(CN5CCCC5)cnc4c3)cc2)cc1`, the melting point lay in the range of 206 to 208 °C.
With `COC(=O)C1C(=O)N(Cc2ccc(Br)cc2F)C(=O)c2ccccc21` (centres undefined) the figure was 149 to 150 °C.
The result for `Cc1ccc([N+](=O)[O-])cc1S(=O)(=O)n1nnc2ccccc21` reads 169 to 170 °C; that for `O=[N+]([O-])c1ccc(OCC(F)(F)F)c(OCC(F)(F)F)c1`, 63 to 65 °C; that for `CC1(C)CC(=C(c2ccc(O)cc2)c2ccc(C(N)=O)cc2)CC(C)(C)C1`, 209 to 210 °C.
With `Cn1nc(C#N)c(Nc2cc(Cl)c(Cl)cc2[N+](=O)[O-])n1` the figure was 148 to 150 °C.
Compound `COc1ccc(-c2coc3c(C)c(OCC4CO4)ccc3c2=O)cc1OC` (centres undefined) returned a melting point of 214 °C.
The result for `CCOC(=O)c1ccc2nc(N)oc2c1` reads 211 to 212 °C; that for `COc1ccc(S(=O)(=O)C(C)(Cc2ccc(Br)cc2)C(=O)NO)cc1` (centres undefined), 86 to 88 °C; that for `COc1ccc(Nc2nc(-c3cccc(C(=O)Nc4ccc(C(=O)OCc5ccccc5)cc4)c3)cn3ccnc23)cc1OC`, 154 to 160 °C.
With `OCC1CN(C(c2ccccc2)c2ccccc2)C1` the figure was 114 to 116 °C; with `CC(C)(C)OC(=O)NC(COCc1ccccc1)C(=O)N1CCOCC1` (centres undefined), 87 to 88 °C.
The result for `COC(=O)c1ccc(C(=O)c2ccc(C)cc2)cc1` reads 125 to 126 °C.
With `C=C(C)c1nc(CCC)n(Cc2ccc(-c3ccccc3C(=O)C(=O)O)cc2)c1C(=O)O`, the melting point lay within 150 to 151 °C.
Take `COCOc1c(C)cc(-c2ccc(C(=O)OC)cc2)cc1C`: the melting point lay within 100 to 101 °C.
Consider `N#CC(N)=C(C#N)N=Cc1cnn(-c2c(F)cc(F)cc2F)n1`, for which the melting point is 213 to 215 °C.
The result for `CN1CN(C2CCCC2)CN(c2nc3c(s2)C(=O)CC(C)(C)C3)C1=O` reads 181 to 183 °C.
With `Cc1ccc(-c2[nH]c(C(C)(C)C)nc2C(=O)Nc2nccs2)cc1` the figure was 218 °C; with `COC(=O)c1ccc(N=CC=Cc2ccccc2)cn1`, 128 to 131 °C.
With `CCC1(C)SC(=NOC(=O)N(C)C(C)=O)N=C1C` (centres undefined) the figure was 98 to 101 °C; with `CCCc1c(OCCOc2ccccc2C(=O)NCCCCc2cccnc2)ccc(C(C)=O)c1O`, 77 to 80 °C.
`Cc1cc(-n2cnnc2)cc(C=O)c1N` registered a melting point of 250 to 252 °C.
Compound `CC(C)(C)CNC=Nc1ccc(-c2c[nH]cn2)cc1Br` showed a melting point of 151 to 154 °C.
In turn, `Cc1ccc(C(=O)Nc2ccc(N3CCN(Cc4ccc[nH]4)CC3)cc2)c(-c2ccc(C(F)(F)F)cc2)c1` registered a melting point of 196 to 198 °C.
The compound `O=C(CCc1ccc(Br)cc1)Cn1ccnc1` had a melting point of 71 to 73 °C.
